Test results from US6147100A, “Pyrrolidine derivatives having phospholipase A2 inhibitory activity” (Shionogi & Co., Ltd., priority 1997, dated 2000).
pIC50: −log10 of the molar value.

How the values were obtained:
[1] = test system: production of prostaglandin E2 by human fibroblasts; experiment: Inhibition of Production of Prostaglandin E2 in Human Fibroblasts (IL-1 stimulation); type: cell-based; settings: Fibroblast; human fibroblasts under stimulation with IL-1
Summary of the method: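 Human fibroblasts stimulated with IL-1, with prostaglandin E2 production measured in the presence of compound as a cellular read-out of cPLA2 inhibition.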

cPLA2 = target: T1, cPLA2 (Homo sapiens, UniProt P47712); experiment: cPLA2 Inhibitory Activity; type: biochemical; settings: 1-palmitoyl-2-[14C]-arachidonoyl-sn-glycero-3-phosphocholine 2.5 μM, sn-1,2-dioleoylglycerol 1.25 μM; pH 7.5, 15 min at 37° C.
T1 sequence (P47712 1-749): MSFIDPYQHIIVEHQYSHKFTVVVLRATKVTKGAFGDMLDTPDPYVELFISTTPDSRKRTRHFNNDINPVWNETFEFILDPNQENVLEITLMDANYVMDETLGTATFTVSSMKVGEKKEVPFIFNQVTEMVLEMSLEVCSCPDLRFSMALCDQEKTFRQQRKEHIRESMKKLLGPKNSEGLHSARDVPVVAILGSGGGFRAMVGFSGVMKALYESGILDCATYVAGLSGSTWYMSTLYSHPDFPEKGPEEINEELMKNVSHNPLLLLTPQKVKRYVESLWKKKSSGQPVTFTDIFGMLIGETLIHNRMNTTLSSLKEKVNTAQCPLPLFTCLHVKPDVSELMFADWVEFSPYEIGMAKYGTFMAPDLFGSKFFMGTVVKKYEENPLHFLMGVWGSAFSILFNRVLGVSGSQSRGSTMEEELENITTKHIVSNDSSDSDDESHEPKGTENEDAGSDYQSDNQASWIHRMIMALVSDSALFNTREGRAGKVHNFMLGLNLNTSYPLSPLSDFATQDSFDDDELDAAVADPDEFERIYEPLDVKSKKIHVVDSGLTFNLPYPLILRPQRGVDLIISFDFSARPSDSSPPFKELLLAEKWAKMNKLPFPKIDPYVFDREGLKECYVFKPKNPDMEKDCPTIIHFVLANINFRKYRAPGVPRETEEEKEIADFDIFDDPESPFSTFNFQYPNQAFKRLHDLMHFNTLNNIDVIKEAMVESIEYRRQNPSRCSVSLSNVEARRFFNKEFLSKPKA
Summary of the method: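 Radiometric assay in 50 mM HEPES pH 7.5 with 1 mM CaCl2, 150 mM NaCl, 0.1 mg/ml BSA and 1.7 mM DTT; compound and substrate added, reaction started with enzyme, 15 min at 37° C. Released fatty acids extracted (Dole method), counted by liquid scintillation versus no-compound control.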

With `O=C1NC(=O)/C(=C/c2ccc(C(=O)NC[C@@H]3C[C@@H](Oc4ccccc4Cc4ccccc4)CN3C(=O)c3ccccc3C(=O)c3ccc(F)cc3)cc2)S1` [Compound A-83] as the molecule, how does the pIC50 [1] read?
The pIC50 was 6.64.

And the pIC50 (cPLA2)?
The pIC50 was 7.28.

With `CC(C)(C)c1ccccc1O[C@@H]1C[C@@H](CNC(=O)c2ccc(/C=C3\SC(=O)NC3=O)cc2)N(C(=O)c2ccccc2C(=O)c2ccc(F)cc2)C1` [Compound A-75] as the molecule, how does the pIC50 [1] read?
The pIC50 was 5.66.

And the pIC50 (cPLA2)?
Its pIC50 is 6.72.

With `O=C1NC(=O)/C(=C/c2ccc(C(=O)NC[C@@H]3C[C@@H](OCc4ccccc4-c4ccccc4)CN3C(=O)c3ccccc3C(=O)C3CCCCC3)cc2)S1` [Compound A-14] as the molecule, how does the pIC50 [1] read?
Its pIC50 is 6.48.

What about the pIC50 (cPLA2) of the same molecule?
The pIC50 was 6.43.

How did the pIC50 [1] turn out when `COc1ccccc1-c1ccccc1CO[C@@H]1C[C@@H](CNC(=O)c2ccc(/C=C3\SC(=O)NC3=O)cc2)N(C(=O)c2ccccc2C(=O)c2ccc(F)cc2)C1` [Compound A-41] was run?
Its pIC50 is 5.92.

What about the pIC50 (cPLA2) of the same molecule?
The pIC50 was 7.25.

With `O=C1NC(=O)/C(=C/c2ccc(C(=O)NC[C@@H]3C[C@@H](OCc4ccccc4-c4cccc(C(F)(F)F)c4)CN3C(=O)c3ccccc3C(=O)c3ccc(F)cc3)cc2)S1` [Compound A-44] as the molecule, how does the pIC50 [1] read?
Its pIC50 is 6.26.

What about the pIC50 (cPLA2) of the same molecule?
Its pIC50 is 7.24.

`O=C1NC(=O)/C(=C/c2ccc(NC(=O)[C@@H]3C[C@@H](OCc4ccccc4-c4ccccc4)CN3C(=O)c3ccccc3C(=O)c3ccc(F)cc3)s2)S1` [Compound B-8] was tested. Which pIC50 [1] did it give?
Its pIC50 is 5.57.

And the pIC50 (cPLA2)?
Its pIC50 is 6.00.

What does the source list for `CN(Cc1ccccc1)[C@@H]1C[C@@H](C(=O)Nc2ccc(/C=C3\SC(=S)NC3=O)cc2)N(C(=O)c2ccccc2C(=O)c2ccc(F)cc2)C1` [Compound N-1]?
pIC50 [1]: 6.12; pIC50 (cPLA2): 6.85

Which results are given for `CCN(Cc1ccccc1-c1ccccc1)[C@@H]1C[C@@H](CNC(=O)c2ccc(/C=C3\SC(=O)NC3=O)cc2)N(C(=O)c2ccccc2C(=O)c2ccc(F)cc2)C1` [Compound M-8]?
pIC50 [1]: 6.10; pIC50 (cPLA2): 7.22

Which results are given for `O=C1NC(=O)/C(=C/c2ccc(C(=O)NC[C@@H]3C[C@@H](OCc4ccccc4-c4ccccc4)CN3C(=O)c3ccccc3C(=O)c3ccc(Cl)cc3)cc2)S1` [Compound A-22]?
pIC50 [1]: 6.74; pIC50 (cPLA2): 6.52

What does the source list for `O=C1NC(=O)/C(=C/c2ccc(/C=C\C[C@@H]3C[C@@H](OCc4ccccc4-c4ccccc4)CN3C(=O)c3ccccc3C(=O)c3ccc(F)cc3)cc2)S1` [Compound E-12]?
pIC50 [1]: 5.24; pIC50 (cPLA2): 6.46

Which results are given for `CN(Cc1ccccc1-c1ccccc1)[C@@H]1C[C@@H](C(=O)Nc2ccc(/C=C3\SC(=S)NC3=O)cc2)N(C(=O)c2ccccc2C(=O)c2ccc(F)cc2)C1` [Compound N-3]?
pIC50 [1]: 6.00; pIC50 (cPLA2): 7.23

How did the pIC50 [1] turn out when `Cc1ccc(C(=O)c2ccccc2C(=O)N2C[C@H](OCc3ccccc3-c3ccccc3)C[C@H]2C(=O)Nc2ccc(/C=C3\SC(=O)NC3=O)cc2)cc1` [Compound B-5] was run?
Its pIC50 is 5.13.

What about the pIC50 (cPLA2) of the same molecule?
Its pIC50 is 6.36.

How did the pIC50 [1] turn out when `CC(C)c1cccc(-c2ccccc2)c1O[C@@H]1C[C@@H](CNC(=O)c2ccc(/C=C3\SC(=O)NC3=O)cc2)N(C(=O)c2ccccc2C(=O)c2ccc(F)cc2)C1` [Compound A-104] was run?
The pIC50 was 5.89.

And the pIC50 (cPLA2)?
Its pIC50 is 7.42.

`O=C1NC(=O)/C(=C/c2ccc(C(=O)NC[C@@H]3C[C@@H](Oc4ccccc4-c4ccc5ccccc5c4)CN3C(=O)c3ccccc3C(=O)c3ccc(F)cc3)cc2)S1` [Compound A-95] was tested. Which pIC50 [1] did it give?
Its pIC50 is 6.41.

And the pIC50 (cPLA2)?
The pIC50 was 7.12.

What does the source list for `O=C1NC(=O)/C(=C/c2ccc(C(=O)NC[C@@H]3C[C@@H](Oc4cc(-c5ccccc5)c5ccccc5c4)CN3C(=O)c3ccccc3C(=O)c3ccc(F)cc3)cc2)S1` [Compound A-81]?
pIC50 [1]: 6.46; pIC50 (cPLA2): 7.28

Which results are given for `O=C1NC(=O)/C(=C/c2ccc(C(=O)NC[C@@H]3C[C@@H](OCc4ccccc4-c4ccc(F)cc4)CN3C(=O)c3ccccc3C(=O)c3ccc(F)cc3)cc2)S1` [Compound A-30]?
pIC50 [1]: 6.34; pIC50 (cPLA2): 7.01

With `O=C1NC(=O)/C(=C/c2ccc(CCC[C@@H]3C[C@@H](OCc4ccccc4-c4ccccc4)CN3C(=O)c3ccccc3C(=O)c3ccc(F)cc3)cc2)S1` [Compound E-9] as the molecule, how does the pIC50 [1] read?
Its pIC50 is 5.19.

And the pIC50 (cPLA2)?
Its pIC50 is 6.00.

How did the pIC50 [1] turn out when `O=C1NC(=O)/C(=C/c2ccc(C(=O)NC[C@@H]3C[C@@H](N(CC4CC4)C(c4ccccc4)c4ccccc4)CN3C(=O)c3ccccc3C(=O)c3ccc(F)cc3)cc2)S1` [Compound M-14] was run?
Its pIC50 is 5.85.

And the pIC50 (cPLA2)?
Its pIC50 is 7.57.

With `COc1cccc(-c2ccccc2C(C)C)c1O[C@@H]1C[C@@H](CNC(=O)c2ccc(/C=C3\SC(=O)NC3=O)cc2)N(C(=O)c2ccccc2C(=O)c2ccc(F)cc2)C1` [Compound A-120] as the molecule, how does the pIC50 [1] read?
Its pIC50 is 6.13.

What about the pIC50 (cPLA2) of the same molecule?
The pIC50 was 7.54.

With `O=C1NC(=O)/C(=C/c2ccc(C(=O)NC[C@@H]3C[C@@H](Cc4ccccc4-c4ccccc4)CN3C(=O)c3ccccc3C(=O)c3ccc(F)cc3)cc2)S1` [Compound O-1] as the molecule, how does the pIC50 [1] read?
The pIC50 was 6.12.

What about the pIC50 (cPLA2) of the same molecule?
The pIC50 was 6.70.

What does the source list for `O=C(/C=C/c1ccc(/C=C2\SC(=O)NC2=O)cc1)NC[C@@H]1C[C@@H](OCc2ccccc2-c2ccccc2)CN1C(=O)c1ccccc1C(=O)c1ccc(F)cc1` [Compound A-52]?
pIC50 [1]: 6.21; pIC50 (cPLA2): 7.28

With `O=C1NC(=S)S/C1=C\c1ccc(COC[C@@H]2C[C@@H](OCc3ccccc3-c3ccccc3)CN2C(=O)c2ccccc2C(=O)c2ccc(F)cc2)cc1` [Compound C-2] as the molecule, how does the pIC50 [1] read?
The pIC50 was 5.66.

And the pIC50 (cPLA2)?
The pIC50 was 5.96.

With `CN(Cc1ccccc1-c1ccccc1)[C@@H]1C[C@@H](CNC(=O)c2ccc(/C=C3\SC(=S)NC3=O)cc2)N(C(=O)c2ccccc2C(=O)c2ccc(F)cc2)C1` [Compound M-7] as the molecule, how does the pIC50 [1] read?
Its pIC50 is 5.82.

And the pIC50 (cPLA2)?
The pIC50 was 6.57.

How did the pIC50 [1] turn out when `CC(C)CN(Cc1ccccc1)[C@@H]1C[C@@H](CNC(=O)c2ccc(/C=C3\SC(=O)NC3=O)cc2)N(C(=O)c2ccccc2C(=O)c2ccc(F)cc2)C1` [Compound M-5] was run?
The pIC50 was 5.52.

And the pIC50 (cPLA2)?
The pIC50 was 7.00.

Which results are given for `COc1cccc(-c2ccccc2)c1O[C@@H]1C[C@@H](CNC(=O)c2ccc(/C=C3\SC(=O)NC3=O)cc2)N(C(=O)c2ccccc2C(=O)c2ccc(F)cc2)C1` [Compound A-117]?
pIC50 [1]: 6.70; pIC50 (cPLA2): 7.82

How did the pIC50 [1] turn out when `O=C1NC(=O)/C(=C/c2ccc(C(=O)NC[C@@H]3C[C@@H](OCc4ccccc4-c4ccccc4)CN3C(=O)c3ccccc3C(=O)c3ccc(F)cc3)s2)S1` [Compound A-58] was run?
The pIC50 was 5.80.

What about the pIC50 (cPLA2) of the same molecule?
The pIC50 was 7.31.

With `O=C1NC(=O)/C(=C/c2ccc(S(=O)(=O)NC[C@@H]3C[C@@H](SCc4ccccc4-c4ccccc4)CN3C(=O)c3ccccc3C(=O)c3ccc(F)cc3)cc2)S1` [Compound I-3] as the molecule, how does the pIC50 [1] read?
The pIC50 was 6.01.

And the pIC50 (cPLA2)?
The pIC50 was 7.26.

With `O=C1NC(=O)/C(=C/c2ccc(C(=O)NC[C@@H]3C[C@@H](OCc4ccccc4Br)CN3C(=O)c3ccccc3C(=O)c3ccc(F)cc3)cc2)S1` [Compound A-33] as the molecule, how does the pIC50 [1] read?
The pIC50 was 6.34.

And the pIC50 (cPLA2)?
The pIC50 was 7.23.

With `O=C1NC(=O)/C(=C/c2ccc(C=C[C@@H]3C[C@@H](OCc4ccccc4-c4ccccc4)CN3C(=O)c3ccccc3C(=O)c3ccc(F)cc3)cc2)S1` [Compound E-4] as the molecule, how does the pIC50 [1] read?
Its pIC50 is 5.92.

And the pIC50 (cPLA2)?
Its pIC50 is 5.96.

With `O=C1NC(=O)/C(=C/c2ccc(C(=O)NC[C@@H]3C[C@@H](Oc4ccccc4C4CCCC4)CN3C(=O)c3ccccc3C(=O)c3ccc(F)cc3)cc2)S1` [Compound A-76] as the molecule, how does the pIC50 [1] read?
The pIC50 was 6.28.

And the pIC50 (cPLA2)?
Its pIC50 is 7.14.

`O=C1NC(=O)/C(=C/c2ccc(C(=O)NC[C@H]3C[C@H](OCc4ccccc4-c4ccccc4)CN3C(=O)c3ccccc3C(=O)c3ccc(F)cc3)cc2)S1` [Compound Q-5] was tested. Which pIC50 [1] did it give?
Its pIC50 is 5.89.

And the pIC50 (cPLA2)?
The pIC50 was 5.72.

`O=C1NC(=O)/C(=C/c2ccc(S(=O)(=O)NC[C@@H]3C[C@@H](OCc4ccccc4-c4ccccc4)CN3C(=O)c3ccccc3C(=O)c3ccc(F)cc3)cc2)S1` [Compound A-62] was tested. Which pIC50 [1] did it give?
Its pIC50 is 5.96.

And the pIC50 (cPLA2)?
The pIC50 was 6.59.
